Results from PubChem BioAssay AID2060899 (Molecular Pharmacology Branch, DTP, NCI, 2025).
Values belong to the compound of their own block, whether it stands above or below them.

System: 565726-208-R1-J5-PDC complex spheroids, growth inhibition
Experiment: Anticancer human tumor 565726-208-R1-J5-PDC patient-derived pancreatic adenocarcinoma cell line growth inhibition [RAS]
Conditions: for IC50: curve of first compound; for viability, T/C: stronger effect = lower value
Description: RAS pathway inhibitors in Combinations in Complex Spheroids
A high-throughput screen of multi-cell type tumor spheroids was designed to identify active combinations of RAS pathway inhibitors and targeted small molecules. Complex spheroids include a stromal component modeled by human endothelial cells (HUVEC) and fibroblasts modeled by human mesenchymal stem cells (MSCs). The concentration ranges selected for each drug and investigational agent were based upon clinically achievable concentrations if the clinical Cmax of the agent was known.
Compounds. The drugs and investigational agents: abemaciclib (NSC768073), cobimetinib (NSC768068), divarasib (GDC6063, NSC841802), docetaxel (NSC628503), GDC-1971 (RLY-1971, NSC841576), gemcitabine (NSC613327), inavolisib (NSC800729), ipatasertib (NSC767898), KB-0742 (NSC834161), MRTX-1133 (NSC836407), osimertinib (NSC779217), RMC-4630 (NSC839698), RMC-6236 (NSC851965), RMC-6291 (NSC852671), Ro-3306 (NSC812927), sapanisertib (NSC764658), SN-38 (NSC673596), staurosporine (NSC755774), SY5609 (NSC837396), and tovorafenib (DAY101, NSC766906), were obtained from the National Cancer Institute (NCI) Developmental Therapeutics Program Chemical Repository. The FDA-approved anticancer drug set is available from the NCI Developmental Therapeutics Program. […] The stock solutions were prepared in dimethyl sulfoxide (DMSO, Sigma-Aldrich, St. Louis, MO, cat. D2650) at 800-fold the tested concentration and stored at -70 degrees C prior to their use. All drugs and investigational agents were tested over a range starting from a high concentration at or near the clinical Cmax and decreasing in half-log increments. If the clinical Cmax for an agent had not been determined, the highest concentration tested was 10 microM.
Cell Culture. All cells were maintained in an incubator at 37 degrees C and 5% CO2 with 95% humidity. The PDC lines were cultured according to standard operating procedures established by the NCI PDMR. All PDCs were thawed and cultured in Matrigel-coated flasks prepared with a working solution of 1X Ham's F-12 nutrient mix, without supplementation (Invitrogen, Waltham, MA, cat. 11765054), 100 U/mL penicillin-streptomycin (Invitrogen, cat. 15140122), and 2.5% Matrigel (Corning Inc., Corning, NY, cat. 354248) for the first three passages. The 362531-283-R-J2-PDC and 782815-120-R-J1-PDC lines were cultured in 6C/Colon 1B media, which includes advanced DMEM/F-12 (Thermo Fisher Scientific, cat. 12634028), 10 mM HEPES (Thermo Fisher Scientific, cat. 15630080), 1X GlutaMAX supplement (Thermo Fisher Scientific, cat. 35050061), 0.1 mg/mL primocin (InvivoGen, San Diego, CA, cat. ant-pm-2), 10% defined fetal bovine serum, heat inactivated (HyClone Laboratories Inc., Logan, UT, cat. SH30070.03HI), 50% L-WRN conditioned media (ATCC, cat. CRL-3276), 1.25 mM N-Acetyl-L-cysteine (Sigma-Aldrich, cat. A9165), 10 mM nicotinamide (Sigma-Aldrich, cat. N0636), 1X B-27 supplement (Thermo Fisher Scientific, cat. 17504044), 1X N-2 supplement (Thermo Fisher Scientific, cat. 17502048), 50 ng/mL human EGF (Thermo Fisher Scientific, cat. PHG0311), and 10 microM Y-27632 dihydrochloride (Tocris Bioscience, cat. 1254). The K12877-001-R-J1-PDC line was cultured in 6I media, which includes all 6C/Colon 1B media plus 10 ng/mL human FGF-10 (PeproTech, cat. 100-26), 1 ng/mL human FGF-2 (PeproTech, cat. 100-18B), 1 µM prostaglandin E2 (Tocris Bioscience, cat. 2296), […] hydrocortisone (Sigma-Aldrich, cat. H4001), and […] bovine insulin (Sigma-Aldrich, cat. I6634). The K86415-001-R-J1-PDC line was cultured in 6D media, which includes all 6C/Colon 1B media components minus the L-WRN conditioned media. The 485176-168-R4-J1-PDC was cultured in PANC media, which includes all 6C/Colon 1B media plus 100 ng/mL human FGF-10 (PeproTech, cat. 100-26), 500 nM SB-431542 (Selleckchem, cat. S1067), and 10 nM gastrin (Tocris Bioscience, cat. 3006). […]
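Further: spheroids exposed to compounds for seven days before readout.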
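Wherever viability, T/C is given: 100% = DMSO vehicle control viability.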

IC50 (second compound 0.0316 µM): < 31.6 nM
IC50 (second compound 0.1 µM): < 31.6 nM
IC50 (second compound 0.316 µM): < 31.6 nM
IC50 (second compound 1 µM): < 31.6 nM
IC50 (second compound 3.16 µM): < 31.6 nM
IC50 (second compound 10 µM): < 31.6 nM
SMILES: CC(=O)OC12COC1CC(O)C1(C)C(=O)C(O)C3=C(C)C(OC(=O)C(O)C(NC(=O)OC(C)(C)C)c4ccccc4)CC(O)(C(OC(=O)c4ccccc4)C21)C3(C)C (centres undefined) + C#Cc1c(F)ccc2cc(O)cc(-c3ncc4c(N5CC6CCC(C5)N6)nc(OCC56CCCN5CC(F)C6)nc4c3F)c12
viability, T/C (second compound 0.0316 µM, first compound 0.0316 µM): 18.9%
viability, T/C (second compound 0.0316 µM, first compound 0.1 µM): 20.3%
viability, T/C (second compound 0.0316 µM, first compound 0.316 µM): 14.2%
viability, T/C (second compound 0.0316 µM, first compound 1 µM): 19.1%
viability, T/C (second compound 0.0316 µM, first compound 3.16 µM): 21.4%
viability, T/C (second compound 0.0316 µM, first compound 10 µM): 27%
viability, T/C (second compound 0.1 µM, first compound 0.0316 µM): 16.9%
viability, T/C (second compound 0.1 µM, first compound 0.1 µM): 20.3%
viability, T/C (second compound 0.1 µM, first compound 0.316 µM): 19.1%
viability, T/C (second compound 0.1 µM, first compound 1 µM): 15.5%
viability, T/C (second compound 0.1 µM, first compound 3.16 µM): 18.8%
viability, T/C (second compound 0.1 µM, first compound 10 µM): 29.8%
viability, T/C (second compound 0.316 µM, first compound 0.0316 µM): 18.8%
viability, T/C (second compound 0.316 µM, first compound 0.1 µM): 21.2%
viability, T/C (second compound 0.316 µM, first compound 0.316 µM): 16.1%
viability, T/C (second compound 0.316 µM, first compound 1 µM): 18.1%
viability, T/C (second compound 0.316 µM, first compound 3.16 µM): 22.8%
viability, T/C (second compound 0.316 µM, first compound 10 µM): 30.4%
viability, T/C (second compound 1 µM, first compound 0.0316 µM): 20%
viability, T/C (second compound 1 µM, first compound 0.1 µM): 21.3%
viability, T/C (second compound 1 µM, first compound 0.316 µM): 14.5%
viability, T/C (second compound 1 µM, first compound 1 µM): 17.3%
viability, T/C (second compound 1 µM, first compound 3.16 µM): 24.9%
viability, T/C (second compound 1 µM, first compound 10 µM): 26.6%
viability, T/C (second compound 3.16 µM, first compound 0.0316 µM): 19.3%
viability, T/C (second compound 3.16 µM, first compound 0.1 µM): 24.1%
viability, T/C (second compound 3.16 µM, first compound 0.316 µM): 23.5%
viability, T/C (second compound 3.16 µM, first compound 1 µM): 19.9%
viability, T/C (second compound 3.16 µM, first compound 3.16 µM): 25.9%
viability, T/C (second compound 3.16 µM, first compound 10 µM): 26.7%
viability, T/C (second compound 10 µM, first compound 0.0316 µM): 17.7%
viability, T/C (second compound 10 µM, first compound 0.1 µM): 23.9%
viability, T/C (second compound 10 µM, first compound 0.316 µM): 22.1%
viability, T/C (second compound 10 µM, first compound 1 µM): 23.1%
viability, T/C (second compound 10 µM, first compound 3.16 µM): 21%
viability, T/C (second compound 10 µM, first compound 10 µM): 22.4%

IC50 (second compound 0.0316 µM): 4.16 nM
IC50 (second compound 0.1 µM): 4.06 nM
IC50 (second compound 0.316 µM): 3.83 nM
IC50 (second compound 1 µM): 2.73 nM
IC50 (second compound 3.16 µM): 3.14 nM
IC50 (second compound 10 µM): 1.5 nM
SMILES: CCc1c2c(nc3ccc(O)cc13)-c1cc3c(c(=O)n1C2)COC(=O)[C@]3(O)CC + C#Cc1c(F)ccc2cc(O)cc(-c3ncc4c(N5CC6CCC(C5)N6)nc(OCC56CCCN5CC(F)C6)nc4c3F)c12
viability, T/C (second compound 0.0316 µM, first compound 0.000949 µM): 74.2%
viability, T/C (second compound 0.0316 µM, first compound 0.003 µM): 56.9%
viability, T/C (second compound 0.0316 µM, first compound 0.00949 µM): 34%
viability, T/C (second compound 0.0316 µM, first compound 0.03 µM): 20.2%
viability, T/C (second compound 0.0316 µM, first compound 0.0949 µM): 12.5%
viability, T/C (second compound 0.0316 µM, first compound 0.3 µM): 5.35%
viability, T/C (second compound 0.1 µM, first compound 0.000949 µM): 97.8%
viability, T/C (second compound 0.1 µM, first compound 0.003 µM): 56%
viability, T/C (second compound 0.1 µM, first compound 0.00949 µM): 31.8%
viability, T/C (second compound 0.1 µM, first compound 0.03 µM): 19.4%
viability, T/C (second compound 0.1 µM, first compound 0.0949 µM): 13.1%
viability, T/C (second compound 0.1 µM, first compound 0.3 µM): 6.83%
viability, T/C (second compound 0.316 µM, first compound 0.000949 µM): 81.1%
viability, T/C (second compound 0.316 µM, first compound 0.003 µM): 56.2%
viability, T/C (second compound 0.316 µM, first compound 0.00949 µM): 30.2%
viability, T/C (second compound 0.316 µM, first compound 0.03 µM): 20.6%
viability, T/C (second compound 0.316 µM, first compound 0.0949 µM): 13.9%
viability, T/C (second compound 0.316 µM, first compound 0.3 µM): 6.04%
viability, T/C (second compound 1 µM, first compound 0.000949 µM): 70.8%
viability, T/C (second compound 1 µM, first compound 0.003 µM): 43%
viability, T/C (second compound 1 µM, first compound 0.00949 µM): 35.9%
viability, T/C (second compound 1 µM, first compound 0.03 µM): 22.4%
viability, T/C (second compound 1 µM, first compound 0.0949 µM): 11.8%
viability, T/C (second compound 1 µM, first compound 0.3 µM): 6.08%
viability, T/C (second compound 3.16 µM, first compound 0.000949 µM): 58.8%
viability, T/C (second compound 3.16 µM, first compound 0.003 µM): 54.6%
viability, T/C (second compound 3.16 µM, first compound 0.00949 µM): 29.1%
viability, T/C (second compound 3.16 µM, first compound 0.03 µM): 22.1%
viability, T/C (second compound 3.16 µM, first compound 0.0949 µM): 14.1%
viability, T/C (second compound 3.16 µM, first compound 0.3 µM): 7.99%
viability, T/C (second compound 10 µM, first compound 0.000949 µM): 52.6%
viability, T/C (second compound 10 µM, first compound 0.003 µM): 49.1%
viability, T/C (second compound 10 µM, first compound 0.00949 µM): 30.1%
viability, T/C (second compound 10 µM, first compound 0.03 µM): 30.9%
viability, T/C (second compound 10 µM, first compound 0.0949 µM): 20.3%
viability, T/C (second compound 10 µM, first compound 0.3 µM): 8.91%
